Data from article PMC3423427, “Design and Synthesis of Potent N-Acylethanolamine-hydrolyzing Acid Amidase (NAAA) Inhibitor as Anti-Inflammatory Compounds” (PLoS ONE, 2012).

Key:
NAAA = details: cited from earlier work
rat FAAH = molecular target: T1, rat FAAH (Rattus norvegicus, UniProt P97612); test: FAAH enzymatic assay (recombinant rFAAH protein, LC/MS); format: biochemical; details: for IC50: IC50 ± S.E.M., triplicate, 25 µM anandamide, pH 8.0
T1 construct: made in house; host or cells: HEK293 cells stably overexpressing rat FAAH (HEK293-rFAAH), a gift from D. Piomelli; crude cell extract
T1 sequence (P97612 1-579): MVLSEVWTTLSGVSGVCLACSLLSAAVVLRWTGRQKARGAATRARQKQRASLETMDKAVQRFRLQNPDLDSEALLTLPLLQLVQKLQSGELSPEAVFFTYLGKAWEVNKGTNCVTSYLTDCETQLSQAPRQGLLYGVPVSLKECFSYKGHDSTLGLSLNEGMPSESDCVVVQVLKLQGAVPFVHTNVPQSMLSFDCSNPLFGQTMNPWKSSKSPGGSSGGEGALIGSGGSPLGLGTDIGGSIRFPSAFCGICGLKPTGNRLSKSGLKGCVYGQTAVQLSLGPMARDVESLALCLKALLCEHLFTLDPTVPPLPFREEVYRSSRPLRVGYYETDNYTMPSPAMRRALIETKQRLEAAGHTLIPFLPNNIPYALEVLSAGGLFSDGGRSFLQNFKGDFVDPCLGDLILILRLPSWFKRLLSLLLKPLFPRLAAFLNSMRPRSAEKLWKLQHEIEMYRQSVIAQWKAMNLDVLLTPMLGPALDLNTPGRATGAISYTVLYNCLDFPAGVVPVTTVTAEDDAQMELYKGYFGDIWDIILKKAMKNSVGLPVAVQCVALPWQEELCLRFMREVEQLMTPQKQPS
Procedure: (§1) HEK293-rNAAA or HEK293-rFAAH cells were harvested, washed with PBS, sonicated in 20 mM Tris-HCl (pH 7.5) containing 0.32 M sucrose, and centrifuged at 800 × g for 15 min at 4°C. The supernatants were collected and protein concentrations were measured by BCA protein assay kit (Pierce, Shanghai, China). […] The reactions were terminated by adding 0.2 mL methanol containing 1 nmol heptadecanoic acid and analyzed in LC/MS.
(§2) We use an Agilent 1200-LC system coupled to a 3200Q TRAP-MS detector equipped with an ESI interface (Agilent Technologies, Shanghai, China). […] The column temperature was set at 40°C. […] Mass spectrometer (MS) detection was ionized by positive-ion atmospheric pressure chemical ionization mode (APCI^+) and monitored in MRM mode. […] Quantifications were calculated at chromatographic peak areas by using Analyst® version 1.4.1. software (Applied Biosystems).

rat NAAA = molecular target: T2, rat NAAA (Rattus norvegicus, UniProt Q5KTC7); test: NAAA enzymatic assay (recombinant rNAAA protein, LC/MS); format: biochemical; details: for IC50: IC50 ± S.E.M., triplicate, 25 µM heptadecenoylethanolamide, pH 5.0;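 as to all read-outs here: reaction product measured by LC/MS using positive APCI ionization with MRM monitoring, quantified from chromatographic peak areas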
T2 construct: made in house; host or cells: HEK293 cells stably overexpressing rat NAAA (HEK293-rNAAA), a gift from D. Piomelli; crude 800 x g supernatant of sonicated cells
T2 sequence (Q5KTC7 34-362): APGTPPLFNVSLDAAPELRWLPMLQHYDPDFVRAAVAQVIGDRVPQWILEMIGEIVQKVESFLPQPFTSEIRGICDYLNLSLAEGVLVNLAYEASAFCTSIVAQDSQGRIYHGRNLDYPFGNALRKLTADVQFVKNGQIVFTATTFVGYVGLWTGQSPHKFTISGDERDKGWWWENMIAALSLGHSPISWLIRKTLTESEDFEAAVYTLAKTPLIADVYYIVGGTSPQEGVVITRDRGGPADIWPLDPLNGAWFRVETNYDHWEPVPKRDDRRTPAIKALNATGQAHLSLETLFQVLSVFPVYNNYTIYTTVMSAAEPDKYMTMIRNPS
Procedure: as §1, §2

Row | Structure (SMILES) | potency as NAAA inhibitor relative to CCP (NAAA) | mode of NAAA inhibition (NAAA) | IC50 (rat FAAH) | IC50 (rat NAAA) | inhibition ability on FAAH activity (in words) (rat FAAH) | inhibition ability on NAAA activity (in words) (rat NAAA) | melting point
1 | O=C(CCc1ccccc1)N[C@H]1COC1=O [(S)-OOPP, (S)-N-(2-oxo-3-oxetanyl)-3-phenylpropionamide] | about 10 fold | – | – | – | – | – | –
2 | CCCCCCCCCCCCCCCNC(=O)C1CCCCC1 [CCP, N-Cyclohexanecarbonylpentadecylamine] | – | reversible and non-competitive | – | – | – | – | –
3 | CCCCCCCCCCCCCCCC(=O)N1CCCC1 [Compound 1, 1–Pentadecanyl–carbonyl pyrrolidine] | – | – | 21.8 ± 4.45 µM | 25 ± 5.7 µM | – | – | –
4 | CCCCCCCCCCCCCCCC(=O)NC1CCCC1 [Compound 2, N–Cyclopentylpalmitamide] | – | – | > 100 µM | > 100 µM | complete loss of the inhibition ability | complete loss of the inhibition ability | –
5 | CCCCCCCCCCCCCCCC(=O)N1CCCCC1 [Compound 3, Pentadecanyl–carbonyl piperidine] | – | – | > 100 µM | > 100 µM | complete loss of the inhibition ability | complete loss of the inhibition ability | –
6 | CCCCCCCCCCCCCCCC(=O)OC1CCCC1 [Compound 4, Cyclopentyl palmitate] | – | – | > 100 µM | > 100 µM | complete loss of the inhibition ability | complete loss of the inhibition ability | –
7 | CCCCCCCCCCCCCCCC(=O)OC1CCOC1 (stereo not drawn) [Compound 5, Tetrahydrofuran–3–yl palmitate] | – | – | > 100 µM | > 100 µM | complete loss of the inhibition ability | complete loss of the inhibition ability | –
8 | CCCCCCCCCCCCCCCC(=O)n1cccc1 [Compound 6, 1–Pentadecanyl–carbonyl pyrrole] | – | – | > 100 µM | > 100 µM | complete loss of the inhibition ability | complete loss of the inhibition ability | 57.9 to 60.2 °C
9 | O=C(Cc1ccccc1)N1CCCC1 [Compound 7, 1–Benzyl–carbonyl pyrrolidine] | – | – | > 100 µM | > 100 µM | – | – | –
10 | O=C(CCc1ccccc1)N1CCCC1 [Compound 8, 1–(2–Phenylethyl)–carbonyl pyrrolidine] | – | – | > 100 µM | > 100 µM | – | – | –
11 | O=C(CCCc1ccccc1)N1CCCC1 [Compound 9, 1–(3–Phenylpropanyl)–carbonyl pyrrolidine] | – | – | > 100 µM | > 100 µM | – | – | –
12 | O=C(CCCCc1ccccc1)N1CCCC1 [Compound 10, 1–(4–Phenylbutanyl)–carbonyl pyrrolidine] | – | – | > 100 µM | 38.2 ± 3.79 µM | – | – | –
13 | O=C(CCCCCc1ccccc1)N1CCCC1 [Compound 11, 1–(5–Phenylpentanyl)–carbonyl pyrrolidine] | – | – | > 100 µM | 34.6 ± 4.82 µM | – | – | –
14 | O=C(CCCCCCc1ccccc1)N1CCCC1 [Compound 12, 1–(6–Phenylhexanyl)–carbonyl pyrrolidine] | – | – | > 100 µM | 12.9 ± 3.47 µM | – | – | –
15 | O=C(CCCCCCCc1ccccc1)N1CCCC1 [Compound 13, 1–(7–Phenylheptanyl)–carbonyl pyrrolidine] | – | – | > 100 µM | 37.9 ± 4.58 µM | – | – | –
16 | O=C(c1ccc(-c2ccccc2)cc1)N1CCCC1 [Compound 14, 1–(Biphenyl–4–ylcarbonyl)pyrrolidine] | – | – | > 100 µM | > 100 µM | – | – | –
17 | O=C(Cc1ccc(-c2ccccc2)cc1)N1CCCC1 [Compound 15, 1–(4–Phenylbenzyl)–carbonyl pyrrolidine] | – | – | > 100 µM | > 100 µM | – | – | –
18 | O=C(Cc1ccc(OCc2ccccc2)cc1)N1CCCC1 [Compound 17, 1–(4–Benzyloxy)benzyl–carbonyl pyrrolidine] | – | – | > 100 µM | > 100 µM | – | – | –
19 | O=C(CCc1ccc(OCc2ccccc2)cc1)N1CCCC1 [Compound 18, 1–(2–(4–Benzyloxy)phenyl)ethyl–carbonyl pyrrolidine] | – | – | > 100 µM | > 100 µM | – | – | –
20 | O=C(c1ccc2ccccc2c1)N1CCCC1 [Compound 19, 1–(2–Naphthalenyl)carbonyl pyrrolidine] | – | – | > 100 µM | > 100 µM | – | – | –
21 | O=C(Cc1ccc2ccccc2c1)N1CCCC1 [Compound 20, 1–(2–Naphthalenyl)acetyl pyrrolidine] | – | – | > 100 µM | > 100 µM | – | – | –
22 | O=C(NCc1ccc(-c2ccccc2)cc1)N1CCCC1 [Compound 21, N–(Biphenyl–4–ylmethyl)pyrrolidinyl–1–carboxamide] | – | – | > 100 µM | > 100 µM | full loss of inhibition | full loss of inhibition | –
23 | O=C(OCc1ccc(-c2ccccc2)cc1)N1CCCC1 [Compound 22, Biphenyl–4–ylmethyl pyrrolidinyl–1–carboxylate] | – | – | > 100 µM | > 100 µM | full loss of inhibition | full loss of inhibition | –
24 | O=C(NCc1ccc(-c2ccccc2)cc1)C1CCCC1 [Compound 23, 4–Phenylbenzyl cyclopentanyl carboxamide] | – | – | > 100 µM | > 100 µM | full loss of inhibition | full loss of inhibition | 151.8 to 154.6 °C
25 | O=C(OCc1ccc(-c2ccccc2)cc1)C1CCCC1 [Compound 24, 4–Phenylbenzyl cyclopentanyl carboxylate] | – | – | > 100 µM | > 100 µM | full loss of inhibition | full loss of inhibition | –
26 | c1ccc(-c2ccc(CCCN3CCCC3)cc2)cc1 [Compound 25, 1–(3–Biphenyl–4–ylpropyl)pyrrolidine] | – | – | > 100 µM | > 100 µM | full loss of inhibition | full loss of inhibition | –
